PubChem BioAssay AID330 (DTP/NCI, 2004)
Several values for one entry are separate records, joined by “and”; a condition that tells them apart may be missing. Equal entries are not always repeated. Inconclusive results and toxic doses are left out.

Test system: P388 leukemia ip, CD2F1 mice, survival T/C
Assay: NCI In Vivo Anticancer Drug Screen. Data for tumor model P388 Leukemia (intraperitoneal) in CD2F1 (CDF1) mice
Details: endpoint: median survival time, higher = longer survival
Outline: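 Mice carrying the transplanted tumor received test compound or vehicle. Survival was recorded in each group, and the value is the treated-group measurement divided by that of the vehicle-treated control group.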

[1] = dose: 50.0 mg/kg/injection, schedule: Q01DX005 (ip), vehicle: saline with Tween-80
[2] = dose: 100.0 mg/kg/injection, schedule: Q01DX005 (ip), vehicle: saline with Tween-80
[3] = dose: 200.0 mg/kg/injection, schedule: Q01DX005 (ip), vehicle: saline with Tween-80
[4] = dose: 50.0 mg/kg/injection, schedule: Q01DX009 (ip), vehicle: Klucel (hydroxypropylcellulose) (HPC)
[5] = dose: 100.0 mg/kg/injection, schedule: Q01DX009 (ip), vehicle: Klucel (hydroxypropylcellulose) (HPC)
[6] = dose: 200.0 mg/kg/injection, schedule: Q01DX009 (ip), vehicle: Klucel (hydroxypropylcellulose) (HPC)
[7] = dose: 50.0 mg/kg/injection, schedule: Q01DX009 (ip), vehicle: saline
[8] = dose: 100.0 mg/kg/injection, schedule: Q01DX009 (ip), vehicle: saline
[9] = dose: 200.0 mg/kg/injection, schedule: Q01DX009 (ip), vehicle: saline
[10] = dose: 25.0 mg/kg/injection, schedule: Q01DX009 (ip), vehicle: Klucel (hydroxypropylcellulose) (HPC)
[11] = dose: 100.0 mg/kg/injection, schedule: Q01DX009 (ip), vehicle: saline with Tween-80
[12] = dose: 60.0 mg/kg/injection, schedule: Q01DX005 (ip), vehicle: saline with Tween-80
[13] = dose: 120.0 mg/kg/injection, schedule: Q01DX005 (ip), vehicle: saline with Tween-80
[14] = dose: 240.0 mg/kg/injection, schedule: Q01DX005 (ip), vehicle: saline with Tween-80
[15] = dose: 3.12 mg/kg/injection, schedule: Q01DX009 (ip), vehicle: saline
[16] = dose: 6.25 mg/kg/injection, schedule: Q01DX009 (ip), vehicle: saline

## Nc1ccc(Br)cc1N
dose: 50.0 mg/kg/injection, schedule: Q01DX009 (ip), vehicle: distilled water + Tween-80 + alcohol
  T/C: 111 % of control
dose: 50.0 mg/kg/injection, schedule: Q01DX009 (ip), vehicle: other
  T/C: 100 % of control
dose: 50.0 mg/kg/injection, schedule: Q01DX009 (ip), vehicle: saline + Tween-80 + alcohol
  T/C: 95 % of control
dose: 100.0 mg/kg/injection, schedule: Q01DX009 (ip), vehicle: distilled water + Tween-80 + alcohol
  T/C: 120 % of control
dose: 100.0 mg/kg/injection, schedule: Q01DX009 (ip), vehicle: other
  T/C: 98 % of control
dose: 100.0 mg/kg/injection, schedule: Q01DX009 (ip), vehicle: saline + Tween-80 + alcohol
  T/C: 107 % of control
dose: 200.0 mg/kg/injection, schedule: Q01DX009 (ip), vehicle: distilled water + Tween-80 + alcohol
  T/C: 150 % of control
dose: 200.0 mg/kg/injection, schedule: Q01DX009 (ip), vehicle: other
  T/C: 106 % of control
dose: 200.0 mg/kg/injection, schedule: Q01DX009 (ip), vehicle: saline + Tween-80 + alcohol
  T/C: 99 % of control

## O=S(=O)(O)c1cc2nonc2c2ccccc12
[1]
  T/C: 98 % of control
[2]
  T/C: 98 % of control
[3]
  T/C: 95 % of control

## COc1cc2c(O)cc(C(=O)O)c(-c3cc(OC)c(OC)c(OC)c3)c2cc1OC
[1]
  T/C: 98 % of control
[2]
  T/C: 103 % of control
[3]
  T/C: 100 % of control

## CCOc1cccc2c1CCC(O[Si](C)(C)C(C)(C)C)C2 (stereo unspecified)
[1]
  T/C: 94 % of control
[2]
  T/C: 95 % of control
[3]
  T/C: 96 % of control

## O=C([CH-]C(=O)C(F)(F)F)c1ccccc1.O=C([CH-]C(=O)C(F)(F)F)c1ccccc1.O=C([CH-]C(=O)C(F)(F)F)c1ccccc1.O=C([CH-]C(=O)C(F)(F)F)c1ccccc1.[Eu+3].c1ccncc1
[4]
  T/C: 113 % of control
[5]
  T/C: 104 % of control

## Cc1cc(C)nc(NS(=O)(=O)c2ccc(NC(=O)Nc3cc(F)ccc3F)cc2)n1
[4]
  T/C: 96 % of control
[5]
  T/C: 95 % of control
[6]
  T/C: 91 % of control

## COC(=O)c1ccc(/C=C/C#N)cc1
[7]
  T/C: 100 % of control
[8]
  T/C: 102 % of control
[9]
  T/C: 97 % of control

## CCCCOS(=O)(=O)c1ccc([N+](C)(C)C)cc1
dose: 12.5 mg/kg/injection, schedule: Q01DX009 (ip), vehicle: Klucel (hydroxypropylcellulose) (HPC)
  T/C: 100 % of control
[10]
  T/C: 102 % of control
[4]
  T/C: 104 % of control

## CC1/C=C/C=C/CC/C=C/C=C/C=C/C=C/C(OC2OC(C)C(O)C(N)C2O)CC2OC(CC(O)C(O)CCC(O)CC(O)CC(O)CC(=O)OC(C)C(C)C1O)CC(O)C2C(=O)O (stereo unspecified)
dose: 6.25 mg/kg/injection, schedule: Q01DX005 (ip), vehicle: saline with Tween-80
  T/C: 95 % of control
dose: 9.5 mg/kg/injection, schedule: Q01DX009 (ip), vehicle: saline sonified
  T/C: 100 % of control
dose: 12.5 mg/kg/injection, schedule: Q01DX005 (ip), vehicle: saline with Tween-80
  T/C: 109 % of control
dose: 19.0 mg/kg/injection, schedule: Q01DX009 (ip), vehicle: saline sonified
  T/C: 95 % of control
dose: 25.0 mg/kg/injection, schedule: Q01DX005 (ip), vehicle: saline with Tween-80
  T/C: 104 % of control
dose: 38.0 mg/kg/injection, schedule: Q01DX009 (ip), vehicle: saline sonified
  T/C: 100 % of control
[1]
  T/C: 95 % of control

## CC12OC1(C)C1C(=O)OCC1C2=O (stereo unspecified)
[10]
  T/C: 105 % of control
[4]
  T/C: 96 % of control
[5]
  T/C: 97 % of control
[6]
  T/C: 117 % of control

## Cc1nc(NC(=O)C(C)(C)C)sc1[N+](=O)[O-]
dose: 50.0 mg/kg/injection, schedule: Q01DX009 (ip), vehicle: saline with Tween-80
  T/C: 101 % of control
[11]
  T/C: 92 % of control
dose: 200.0 mg/kg/injection, schedule: Q01DX009 (ip), vehicle: saline with Tween-80
  T/C: 94 % of control

## NNC(=O)C1C2c3ccccc3C(c3ccccc32)C1C(=O)O (stereo unspecified)
[12]
  T/C: 99 % of control
[13]
  T/C: 101 % of control
[14]
  T/C: 103 % of control

## CC[Se](CC)CC.CC[Se](CC)CC.C[CH2][Ge]([CH2]C)[O][Ge]([CH2]C)[CH2]C
[15]
  T/C: 99 % of control and 95 % of control
[16]
  T/C: 96 % of control (2×) and 97 % of control
dose: 12.5 mg/kg/injection, schedule: Q01DX009 (ip), vehicle: saline
  T/C: 101 % of control and 107 % of control and 96 % of control
dose: 25.0 mg/kg/injection, schedule: Q01DX009 (ip), vehicle: saline
  T/C: 117 % of control and 118 % of control

## CC(=O)Nc1ccc(N=NN(C)Cc2ccccc2)cc1
dose: 25.0 mg/kg/injection, schedule: Q01DX001 (ip), vehicle: Klucel (hydroxypropylcellulose) (HPC)
  T/C: 102 % of control
dose: 50.0 mg/kg/injection, schedule: Q01DX001 (ip), vehicle: Klucel (hydroxypropylcellulose) (HPC)
  T/C: 92 % of control

## O=C(O)C(Cc1cccs1)NC(=O)C(F)(F)F (stereo unspecified)
dose: 50.0 mg/kg/injection, schedule: Q01DX009 (ip), vehicle: saline + alcohol
  T/C: 99 % of control
dose: 100.0 mg/kg/injection, schedule: Q01DX009 (ip), vehicle: saline + alcohol
  T/C: 93 % of control
dose: 200.0 mg/kg/injection, schedule: Q01DX009 (ip), vehicle: saline + alcohol
  T/C: 92 % of control

## COc1ccc2ncc(COC(=O)Nc3ccccc3)c(COC(=O)Nc3ccccc3)c2c1
dose: 12.5 mg/kg/injection, schedule: Q01DX005 (ip), vehicle: Klucel (hydroxypropylcellulose) (HPC)
  T/C: 102 % of control and 106 % of control
dose: 25.0 mg/kg/injection, schedule: Q01DX005 (ip), vehicle: Klucel (hydroxypropylcellulose) (HPC)
  T/C: 100 % of control and 94 % of control
dose: 50.0 mg/kg/injection, schedule: Q01DX005 (ip), vehicle: Klucel (hydroxypropylcellulose) (HPC)
  T/C: 100 % of control and 95 % of control and 97 % of control

## CCC[CH2][Sn]([CH2]CCC)([O]C(C)=O)[c]1ccccc1
dose: 1.56 mg/kg/injection, schedule: Q01DX009 (ip), vehicle: saline
  T/C: 97 % of control
[15]
  T/C: 103 % of control
[16]
  T/C: 96 % of control
[7]
  T/C: 97 % of control
[8]
  T/C: 95 % of control
[9]
  T/C: 100 % of control

## O=C1Nc2ccccc2C1=Nc1ccc2[nH]c3ccccc3c2c1
dose: 60.0 mg/kg/injection, schedule: Q01DX005 (ip), vehicle: Klucel (hydroxypropylcellulose) (HPC)
  T/C: 92 % of control
dose: 120.0 mg/kg/injection, schedule: Q01DX005 (ip), vehicle: Klucel (hydroxypropylcellulose) (HPC)
  T/C: 93 % of control
dose: 240.0 mg/kg/injection, schedule: Q01DX005 (ip), vehicle: Klucel (hydroxypropylcellulose) (HPC)
  T/C: 88 % of control

## O=C1NC(CCO)C(=O)NC1CCO (stereo unspecified)
dose: 50.0 mg/kg/injection, schedule: Q01DX005 (ip), vehicle: saline
  T/C: 100 % of control
dose: 100.0 mg/kg/injection, schedule: Q01DX005 (ip), vehicle: saline
  T/C: 100 % of control
dose: 200.0 mg/kg/injection, schedule: Q01DX005 (ip), vehicle: saline
  T/C: 106 % of control

## O=C(c1ccccc1)N(C(=S)N(C(=O)c1ccccc1)c1ccccc1)c1ccccc1
[12]
  T/C: 100 % of control
[13]
  T/C: 91 % of control
[14]
  T/C: 95 % of control

## FC(F)(F)COP1(OCC(F)(F)F)(OCC(F)(F)F)SC(C(F)(F)F)=C(C(F)(F)F)S1
dose: 50.0 mg/kg/injection, schedule: Q04DX002 (ip), vehicle: saline
  T/C: 102 % of control and 103 % of control
dose: 100.0 mg/kg/injection, schedule: Q04DX002 (ip), vehicle: saline
  T/C: 99 % of control and 100 % of control (2×)
dose: 200.0 mg/kg/injection, schedule: Q04DX002 (ip), vehicle: saline
  T/C: 100 % of control and 107 % of control
dose: 400.0 mg/kg/injection, schedule: Q04DX002 (ip), vehicle: saline
  T/C: 102 % of control and 107 % of control

## CC12CCC3C(CCC4=CC(OC5OCC(O)C(O)C5O)CCC43C=O)C1(O)CCC2C1=CC(=O)OC1 (stereo unspecified)
dose: 1.0 mg/kg/injection, schedule: Q01DX009 (ip), vehicle: Klucel (hydroxypropylcellulose) (HPC)
  T/C: 99 % of control
dose: 2.0 mg/kg/injection, schedule: Q01DX009 (ip), vehicle: Klucel (hydroxypropylcellulose) (HPC)
  T/C: 105 % of control
dose: 4.0 mg/kg/injection, schedule: Q01DX009 (ip), vehicle: Klucel (hydroxypropylcellulose) (HPC)
  T/C: 97 % of control
dose: 8.0 mg/kg/injection, schedule: Q01DX009 (ip), vehicle: Klucel (hydroxypropylcellulose) (HPC)
  T/C: 108 % of control

## Cc1coc2c1C(=O)C(=O)c1c-2ccc2c1CCCC2(C)CO (stereo unspecified) (tested in a mixture with another compound)
[11]
  T/C: 95 % of control
dose: 400.0 mg/kg/injection, schedule: Q01DX009 (ip), vehicle: saline with Tween-80
  T/C: 90 % of control

## Cc1ccc(C(C#N)C(=O)CCCC(=O)Nc2ccc(C)c(C)c2)cc1 (stereo unspecified)
[12]
  T/C: 109 % of control
[13]
  T/C: 100 % of control
[14]
  T/C: 100 % of control
